Source: US12629374B2, “Antimalarial agents” (Merck Sharp & Dohme LLC, priority 2020, dated 2026)

What follows are molecules tested on ring stage parasites (assay: Parasite growth potency assay, 72 hours, LDH readout). Details: 72 h, parasite growth measured by LDH assay after 72 hours at 37° C.; 0.7% rings, 2% haematocrit; read-out: EC50.
Format: cell-based
Description: The parasite stock was maintained at 4% haematocrit in RPMI-Hepes media buffered with sodium bicarbonate and supplemented with 5% heat inactivated human serum and 0.5% albumax.
On the day of assay set up, a blood smear of the parasite culture was Giemsa stained and counted. The parasitemia was adjusted to 0.7% rings and the haematocrit was diluted to 2% in RPMI-Hepes media buffered with sodium bicarbonate and supplemented with 5% heat inactivated human serum and 0.5% albumax. 30 ul of diluted parasites are then added into 10 ul of media+compound in pre-prepared Greiner TC assay plates. Parasite assay plates were placed in gassed humidified boxes in single layer and allowed to incubate at 37° C. for 72 hours. After 72 hours growth, assay plates are sealed with parafilm and frozen flat, in single file at −80° C. overnight. On the following day, assay plates are allowed to thaw at room temperature for 4 hours to which an LDH assay is performed to measure parasite growth.

**Q.** `CCC1(CC)CC(=O)N(Cc2cccc(C(=O)N[C@@H]3CC(C)(C)Oc4cccc(F)c43)c2)C(=N)N1` (stereo in doubt) [Example 94B, [4,4-diethyl-1-[[3-[(5-fluoro-2,2-dimethyl-chroman-4-yl)carbamoyl]phenyl]methyl]-6-oxo-hexahydropyrimidin-2-ylidene]ammonium; 2,2,2-trifluoroacetate] was tested. Which EC50 did it give?
**A.** 72.5 nM

**Q.** How did the EC50 turn out when `CCC1(CC)CC(=O)N(Cc2cccc(C(=O)N[C@H]3CC(C)(C)Oc4c3ccc(F)c4F)c2)C(=N)N1` (stereo in doubt) [Example 117, [1-[[3-[(7,8-difluoro-2,2-dimethyl-chroman-4-yl)carbamoyl]phenyl]methyl]-4,4-diethyl-6-oxo-hexahydropyrimidin-2-ylidene]ammonium; 2,2,2-trifluoroacetate] was run?
**A.** 1.5 nM

**Q.** With `CCC1(CC)CC(=O)N(Cc2cccc(C(=O)N[C@@H]3c4ccccc4CC3(C)O)c2)C(=N)N1` (stereo in doubt) [Example 121, 3-[(4,4-diethyl-2-imino-6-oxo-hexahydropyrimidin-1-yl)methyl]-N-(2-hydroxy-2-methyl-indan-1-yl)benzamide] as the molecule, how does the EC50 read?
**A.** 8.6 nM

**Q.** For `CCC1(CC)CC(=O)N(Cc2cccc(C(=O)N[C@@H]3c4ccccc4OCC3O)c2)C(=N)N1` (stereo in doubt) [Example 126B, 3-[(4,4-diethyl-2-imino-6-oxo-hexahydropyrimidin-1-yl)methyl]-N-(3-hydroxychroman-4-yl)benzamide], which EC50 is on record?
**A.** 19.4 nM

**Q.** Which EC50 does the source give for `CCC1(CC)CC(=O)N([C@H](CCOC)c2cccc(C(=O)N[C@@H]3c4ccccc4OC(C)(C)[C@H]3O)c2)C(=N)N1` (stereo in doubt) [Example 128, [4,4-diethyl-1-[1-[3-[(3-hydroxy-2,2-dimethyl-chroman-4-yl)carbamoyl]phenyl]-3-methoxy-propyl]-6-oxo-hexahydropyrimidin-2-ylidene]ammonium; 2,2,2-trifluoroacetate] here?
**A.** 1.1 nM

**Q.** With `CCC1(CC)CC(=O)N([C@H](CCOC)c2cc(F)cc(C(=O)N[C@@H]3c4ccccc4OC(C)(C)[C@H]3O)c2)C(=N)N1` (stereo in doubt) [Example 129A, [4,4-diethyl-1-[1-[3-fluoro-5-[(3-hydroxy-2,2-dimethyl-chroman-4-yl)carbamoyl]phenyl]-3-methoxy-propyl]-6-oxo-hexahydropyrimidin-2-ylidene]ammonium; 2,2,2-trifluoroacetate] as the molecule, how does the EC50 read?
**A.** 0.8 nM

**Q.** For `CCC1(CC)CC(=O)N([C@H](CCOC)c2cc(F)cc(C(=O)N[C@H]3c4ccccc4OC(C)(C)[C@@H]3O)c2)C(=N)N1` (stereo in doubt) [Example 129B, [4,4-diethyl-1-[1-[3-fluoro-5-[(3-hydroxy-2,2-dimethyl-chroman-4-yl)carbamoyl]phenyl]-3-methoxy-propyl]-6-oxo-hexahydropyrimidin-2-ylidene]ammonium; 2,2,2-trifluoroacetate], which EC50 is on record?
**A.** 87 nM

**Q.** Which EC50 does the source give for `CCC1(CC)CC(=O)N(Cc2cccc(C(=O)N[C@@H]3c4ccccc4OCC3(C)O)c2)C(=N)N1` (stereo in doubt) [Example 131A, 3-[(4,4-diethyl-2-imino-6-oxo-hexahydropyrimidin-1-yl)methyl]-N-(3-hydroxy-3-methyl-chroman-4-yl)benzamide] here?
**A.** 6.6 nM

**Q.** `CCC1(CC)CC(=O)N(Cc2cccc(C(=O)N[C@H]3c4ccccc4OCC3(C)O)c2)C(=N)N1` (stereo in doubt) [Example 131B, 3-[(4,4-diethyl-2-imino-6-oxo-hexahydropyrimidin-1-yl)methyl]-N-(3-hydroxy-3-methyl-chroman-4-yl)benzamide] was tested. Which EC50 did it give?
**A.** 20.2 nM

**Q.** For `CCC1(CC)CC(=O)N(Cc2cc(C(=O)N[C@@H]3c4ccccc4OC(C)(C)[C@H]3O)ccn2)C(=N)N1` (stereo in doubt) [Example 133, [4,4-diethyl-1-[[4-[(3-hydroxy-2,2-dimethyl-chroman-4-yl)carbamoyl]pyridin-1-ium-2-yl]methyl]-6-oxo-hexahydropyrimidin-2-ylidene]ammonium; 2,2,2-trifluoroacetate], which EC50 is on record?
**A.** 3.3 nM

**Q.** With `CCC1(CC)CC(=O)N([C@H](CCN2CCOCC2)c2cccc(C(=O)NC3CC(C)(C)Oc4ccc(F)cc43)c2)C(=N)N1` (stereo in doubt) [Example 137, [4,4-diethyl-1-[1-[3-[(6-fluoro-2,2-dimethyl-chroman-4-yl)carbamoyl]phenyl]-3-morpholin-4-ium-4-yl-propyl]-6-oxo-hexahydropyrimidin-2-ylidene]ammonium; 2,2,2-trifluoroacetate] as the molecule, how does the EC50 read?
**A.** 0.8 nM

**Q.** With `CCC1(CC)CC(=O)N([C@H](CCOC)c2cccc(C(=O)NC3c4ccccc4CC3(C)O)c2)C(=N)N1` (stereo in doubt) [Example 142A, 3-[1-(4,4-diethyl-2-imino-6-oxo-hexahydropyrimidin-1-yl)-3-methoxy-propyl]-N-(2-hydroxy-2-methyl-indan-1-yl)benzamide] as the molecule, how does the EC50 read?
**A.** 2.1 nM

**Q.** Which EC50 does the source give for `CCC1(CC)CC(=O)N([C@H](CCOC)c2cccc(C(=O)N[C@@H]3c4ccccc4OCC3(C)O)c2)C(=N)N1` (stereo in doubt) [Example 143A, 3-[1-(4,4-diethyl-2-imino-6-oxo-hexahydropyrimidin-1-yl)-3-methoxy-propyl]-N-(3-hydroxy-3-methyl-chroman-4-yl)benzamide] here?
**A.** 2.2 nM

**Q.** Which EC50 does the source give for `CCC1(CC)CC(=O)N(Cc2cccc(C(=O)N[C@@H]3c4cc(F)ccc4OC(C)(C)[C@H]3O)c2)C(=N)N1` (stereo in doubt) [Example 147, [4,4-diethyl-1-[[3-[(6-fluoro-3-hydroxy-2,2-dimethyl-chroman-4-yl)carbamoyl]phenyl]methyl]-6-oxo-hexahydropyrimidin-2-ylidene]ammonium; 2,2,2-trifluoroacetate] here?
**A.** 1 nM

**Q.** Which EC50 does the source give for `CCC1(CC)CC(=O)N(Cc2cc(F)cc(C(=O)N[C@@H]3c4cc(F)ccc4OC(C)(C)[C@H]3O)c2)C(=N)N1` (stereo in doubt) [Example 148, [4,4-diethyl-1-[[3-fluoro-5-[(6-fluoro-3-hydroxy-2,2-dimethyl-chroman-4-yl)carbamoyl]phenyl]methyl]-6-oxo-hexahydropyrimidin-2-ylidene]ammonium; 2,2,2-trifluoroacetate] here?
**A.** 1 nM

**Q.** How did the EC50 turn out when `CCC1(CC)CC(=O)N(Cc2cccc(C(=O)N[C@@H]3c4ccccc4OC(C)(C)C3(C)O)c2)C(=N)N1` (stereo in doubt) [Example 184, 3-[(4,4-diethyl-2-imino-6-oxo-hexahydropyrimidin-1-yl)methyl]-N-(3-hydroxy-2,2,3-trimethyl-chroman-4-yl)benzamide] was run?
**A.** 1.5 nM

**Q.** How did the EC50 turn out when `CC1(C)CC(=O)N(Cc2cccc(C(=O)N[C@@H]3c4ccccc4OC(C)(C)C3(C)O)c2)C(=N)N1` (stereo in doubt) [Example 185, N-(3-hydroxy-2,2,3-trimethyl-chroman-4-yl)-3-[(2-imino-4,4-dimethyl-6-oxo-hexahydropyrimidin-1-yl)methyl]benzamide] was run?
**A.** 62.5 nM

**Q.** How did the EC50 turn out when `CCC1(CC)CC(=O)N(Cc2cccc(C(=O)N[C@@H]3c4ccccc4OC3(C)C)c2)C(=N)N1` (stereo in doubt) [Example 186, [1-[[3-[(2,2-dimethyl-3H-benzofuran-3-yl)carbamoyl]phenyl]methyl]-4,4-diethyl-6-oxo-hexahydropyrimidin-2-ylidene]ammonium; 2,2,2-trifluoroacetate] was run?
**A.** 10.9 nM

Same assay, conditions: parasite growth measured by LDH assay after 72 hours at 37° C.; 0.7% rings, 2% haematocrit; read-out: EC50

**Q.** For `CCC1(CC)CC(=O)N([C@H](CCOC)c2cccc(C(=O)N[C@@H]3c4ccccc4OCC3(C)O)c2)C(=N)N1` (stereo in doubt) [Example 143B, 3-[1-(4,4-diethyl-2-imino-6-oxo-hexahydropyrimidin-1-yl)-3-methoxy-propyl]-N-(3-hydroxy-3-methyl-chroman-4-yl)benzamide], which EC50 is on record?
**A.** 1.8 nM

**Q.** How did the EC50 turn out when `CCC1(CC)CC(=O)N([C@H](CCOC)c2cc(F)cc(C(=O)N[C@@H]3c4ccccc4CC3(C)O)c2)C(=N)N1` (stereo in doubt) [Example 144B, 3-[1-(4,4-diethyl-2-imino-6-oxo-hexahydropyrimidin-1-yl)-3-methoxy-propyl]-5-fluoro-N-(2-hydroxy-2-methyl-indan-1-yl)benzamide] was run?
**A.** 1.9 nM

**Q.** With `CCC1(CC)CC(=O)N([C@H](CCOC)c2cc(F)cc(C(=O)N[C@@H]3c4ccccc4CC3(C)O)c2)C(=N)N1` (stereo in doubt) [Example 144D, 3-[1-(4,4-diethyl-2-imino-6-oxo-hexahydropyrimidin-1-yl)-3-methoxy-propyl]-5-fluoro-N-(2-hydroxy-2-methyl-indan-1-yl)benzamide] as the molecule, how does the EC50 read?
**A.** 0.9 nM

Same assay, conditions: parasite growth measured by LDH assay after 72 hours at 37° C.; 0.7% rings, 2% haematocrit; trifluoroacetate; read-out: EC50

**Q.** With `CCC1(CC)CC(=O)N(Cc2cccc(C(=O)N[C@H]3C[C@H](C(F)(F)F)Oc4ccccc43)c2)C(=N)N1` (stereo in doubt) [Example 97, [4,4-diethyl-6-oxo-1-[[3-[[2-(trifluoromethyl)chroman-4-yl]carbamoyl]phenyl]methyl]hexa-hydropyrimidin-2-ylidene]ammonium; 2,2,2-trifluoroacetate] as the molecule, how does the EC50 read?
**A.** 10.6 nM

**Q.** `CCC1(CC)CC(=O)N(Cc2cccc(C(=O)N[C@@H]3c4ccccc4OC3(C)CO)c2)C(=N)N1` (stereo in doubt) [Example 187A, [4,4-diethyl-1-[[3-[[2-(hydroxymethyl)-2-methyl-3H-benzofuran-3-yl]carbamoyl]phenyl]methyl]-6-oxo-hexahydropyrimidin-2-ylidene]ammonium; 2,2,2-trifluoroacetate] was tested. Which EC50 did it give?
**A.** 54.2 nM

**Q.** Which EC50 does the source give for `CCC1(CC)CC(=O)N(Cc2cccc(C(=O)N[C@@H]3c4ccccc4OC3(C)CO)c2)C(=N)N1` (stereo in doubt) [Example 187B, [4,4-diethyl-1-[[3-[[2-(hydroxymethyl)-2-methyl-3H-benzofuran-3-yl]carbamoyl]phenyl]methyl]-6-oxo-hexahydropyrimidin-2-ylidene]ammonium; 2,2,2-trifluoroacetate] here?
**A.** 19.3 nM
